According to US20140045695A1, “Continuous Fiber Layer Comprising an Active Substance on the Basis of Bio-polymers, the Use Thereof, and Method for the Production Thereof” (priority 2008, published 2014):
In brackets after ≈: the same amount, converted by molar mass. Where two headings read alike, the source gives them in different places.

Key:
[1] = cited from earlier work
[2] = Crystallinity studies by x-ray diffraction (WAXS in transmission); format: physicochemical
Description: FIG. 2 crystallinity studies (WAXS in transmission) of the GGE active ingredient in the C16 spider silk protein formulations obtained by electrospinning compared to the pure substances (GGE or C16 powder);
FIG. 6 crystallinity studies (WAXS in transmission) of the clotrimazole active ingredient in the C16 spider silk protein formulations obtained by electrospinning compared to pure clotrimazole;
FIG. 9 crystallinity studies (WAXS in transmission) of the metazachlor active ingredient in the C16 spider silk protein formulations obtained by electrospinning compared to pure metazachlor;
FIG. 12 crystallinity studies (WAXS in transmission) of the Uvinul A+ active ingredient in the C16 spider silk protein formulations obtained by electrospinning compared to Uvinul A+ pure substance;
FIG. 16 crystallinity studies (WAXS in transmission) of the Uvinul A+ active ingredient in the R16 protein nonwoven (A) and S16 protein nonwoven (B) obtained by electrospinning compared to pure Uvinul A+;

NC(=O)N1c2ccccc2C=Cc2ccccc21 [Carbamazipine]
Solubility in water ([1]; RT): 945.1 µg/mL (≈ 4000 µM)

Clc1ccccc1C(c1ccccc1)(c1ccccc1)n1ccnc1 [Clotrimazole]
Solubility in water ([1]; 25° C.): <10 µg/mL

Cc1cccc(C)c1N(Cn1cccn1)C(=O)CCl [metazachlor]
crystallinity of the active ingredient in x-ray diffraction [2]: significant crystalline proportions
